Test results published in paper PMC9959349, “Discovery of the 3-Amino-1,2,4-triazine-Based Library as Selective PDK1 Inhibitors with Therapeutic Potential in Highly Aggressive Pancreatic Ductal Adenocarcinoma” (International Journal of Molecular Sciences, 2023).
Counter-ions that a name gives are not always drawn. Like-named read-outs stand apart in the source and are kept apart here.

Tests used:
[1] = tested on: BxPC-3 cells; assay: 3D spheroid cytotoxicity, acid phosphatase (APH) assay, BxPC-3; settings: read-out: IC50 ±S.D. BxPC-3 (3D cytotoxicity); spheroids, 72 h, APH test
Description: The PDAC cancer spheroids were treated with tested compounds for 72 h, and cell viability was assessed by means of the acid phosphatase (APH) assay (Table 3).
An APH-modified assay was used for determining cell viability in 3D spheroids, as previously described [61]. Briefly, the pre-seeded spheroids were treated with fresh medium containing the compound to be studied at the appropriate concentration (range 2.5–200 μM). Triplicate cultures were established for each treatment. After 72 h, each well was treated with 100 μL of the assay buffer (0.1 M sodium acetate, 0.1% Triton-X-100, supplemented with ImmunoPure p-nitrophenyl phosphate; Sigma Chemical Co., Ltd.) and, following 3 h of incubation, 10 μL of 1 M NaOH solution was added. […] The mean absorbance for each drug dose was expressed as a percentage of the control untreated well absorbance (T/C) and plotted vs. drug concentration. […] The evaluation was based on means from at least four independent experiments.

[2] = tested on: BxPC-3 cells; assay: 2D cytotoxicity, MTT assay, BxPC-3; assay type: cell-based; settings: Homo sapiens, BXPC-3, 72 h, read-out: IC50 ±S.D. BxPC-3 (2D cytotoxicity)
Description: (§1) All newly synthesized compounds were then screened for their cytotoxic activity against two human PDAC cell lines, namely a KRAS-wild-type PDAC cell line (BxPC-3 cells) and a KRAS-mutant PDAC cell line (PSN-1 cells). […] The cytotoxicity parameters, expressed in terms of IC50 and obtained after 72 h of drug exposure by MTT assay, are listed in the Supplementary Materials (Table S2).
(§2) The growth inhibitory effect on tumor cells was evaluated by means of the MTT assay. Briefly, 3–8 × 10^3 cells/well, dependent upon the growth characteristics of the cell line, were seeded in 96-well microplates in growth medium (100 μL). After 24 h, the medium was removed and replaced with a fresh one containing the compound to be studied at the appropriate concentration. Triplicate cultures were established for each treatment. After 72 h, each well was treated with 10 μL of a 5 mg/mL MTT saline solution, and following 5 h of incubation, 100 μL of a sodium dodecyl sulfate (SDS) solution in HCl 0.01 M was added. After overnight incubation, cell growth inhibition was detected by measuring the absorbance of each well at 570 nm using a Bio-Rad 680 microplate reader. The mean absorbance for each drug dose was expressed as a percentage of the control untreated well absorbance and plotted vs. drug concentration. IC50 values, the drug concentrations that reduce the mean absorbance at 570 nm to 50% of those in the untreated control wells, were calculated by the four-parameter logistic (4-PL) model. The evaluation was based on means from at least four independent experiments.

[3] = tested on: PSN-1 cells; assay: 2D cytotoxicity, MTT assay, PSN-1; assay type: cell-based; settings: Homo sapiens, PSN1, 72 h, read-out: IC50 ±S.D. PSN-1 (2D cytotoxicity)
Description: as §1, §2

[4] = tested on: PSN-1 cells; assay: 3D spheroid cytotoxicity, acid phosphatase (APH) assay, PSN-1; settings: read-out: IC50 ±S.D. PSN-1 (3D cytotoxicity); spheroids, 72 h, APH test
[5] = target: recombinant human PDK1 (Homo sapiens, UniProt Q15118); assay: ADP-Glo kinase assay, PDK1; settings: for effect on enzymatic activity of PDK1: 1.5 µM compound, 30 min preincubation
Description: (§4) The ability of tested compounds to inhibit the activity of PDK 1–4 isoforms was primarily assessed in cell-free experiments by a chemioluminescent assay, the ADPGlo™ Kinase Assay kit from Promega (Promega Corporation, Madison, WI, USA).
(§5) The in vitro inhibitory activity of tested compounds on recombinant human PDK1-4 isoforms (Abcam, Cambridge, MA, USA) was evaluated by using the ADPGlo™ Kinase Assay kit from Promega (Promega Corporation, Madison, WI, USA) following the instructions of the manufacturer. […] The reaction was then started by the addition of substrate/ATP for 60 min at room temperature. Subsequently, ADP-Glo™ reagent was added and incubated for 40 min prior to kinase detection reagent addition. After 30 min, the luminescence was measured with a Tecan plate reader (Tecan Infinite® M200). Raw data were normalized to the values of control wells and luminescence values for each drug dose were expressed as a percentage of the luminescence of control untreated wells. […] The evaluation was based on means from at least three independent experiments.

[6] = tested on: PSN-1 cells; assay: Mitochondrial membrane potential (Mito-ID kit); assay type: cell-based, human; settings: IC50 concentrations
Description: The ΔΨ was assayed using the Mito-ID® Membrane Potential Kit according to the manufacturer’s instructions (Enzo Life Sciences, Farmingdale, NY, USA) as previously described. Briefly, PSN-1 cells (8 × 10^3 per well) were seeded in 96-well plates; after 24 h, cells were washed with PBS and loaded with Mito-ID Detection Reagent for 30 min at 37 °C in the dark. Afterward, cells were incubated with tested compounds for 60 min. CCCP (Carbonyl cyanide 3-chlorophenyl-hydrazone) was used as the positive control. Fluorescence intensity was estimated using a VICTOR X3 (PerkinElmer, Waltham, MA, USA) plate reader at 490 (excitation) and 590 nm (emission).

[7] = tested on: PSN-1 cells; assay: ROS production (CM-H2DCFDA); assay type: cell-based, human; settings: 5 µM test compounds, antimycin 3 µM as positive control
Description: Consistently, tested compounds, although to different extents, were effective in reducing total cellular sulfhydryl contents in PSN-1-treated cells (Figure 9B).
The production of ROS was measured in PSN-1 cells (10^4 per well) grown for 24 h in a 96-well plate in RPMI medium without phenol red (Sigma Aldrich, Germany). Cells were then washed with PBS and loaded with 10 μM 5-(and-6)-chloromethyl-2′,7′-dichlorodihydrofluorescein diacetate acetylester (CM–H2DCFDA) (Molecular Probes-Invitrogen, Eugene, OR, USA) for 45 min, in the dark. Afterward, cells were washed with PBS and incubated with tested compounds. Fluorescence increase was estimated utilizing the wavelengths of 485 nm (excitation) and 527 nm (emission) in a VICTOR X3 (PerkinElmer, USA) plate reader. Antimycin (3 μM, Sigma Aldrich), a potent inhibitor of Complex III in the electron transport chain, was used as the positive control.

[8] = tested on: PSN-1 cells; assay: Cellular lactate production; assay type: cell-based, human; settings: IC50 concentrations
Description: (§3) Cells were treated with DAP or representative compounds at IC50 concentrations and the changes in OCR and in the intracellular lactate formation were monitored.
PSN-1 cells (2 × 10^5) were seeded in a six-well plate in a growth medium (4 mL). After 24 h, cells were incubated for 60 min with IC50 concentrations of tested compounds. Changes in lactate production were assessed via colorimetric microplate assay (Lactate assay kit®, Merk, St. Louis, MO, USA) according to the manufacturer’s instructions. The intracellular lactate concentration was detected by measuring the absorbance of each well at 570 nm, using a Bio-Rad 680 microplate reader.

[9] = target: recombinant human HSP90 (Homo sapiens, UniProt P07900); assay: HSP90 inhibition assay (Transcreener ADP kit); assay type: biochemical; settings: for decrease of HSP90 catalytic activity: 1.5 µM compound (equivalent doses)
Description: The in vitro inhibitory activity of tested compounds on recombinant human HSP90 was assessed by The Transcreener™ ADP kit (Bellbrook Labs) according to the manufacturer’s protocol. Human recombinant HSP90 protein was incubated with tested compounds in the presence of 250 μM ATP at 37 °C for 30 min, 4°C for 30 min and ATPase activity was stopped via the addition of the stop and detect buffer. Following this, samples were incubated for 1 h at room temperature with the ADP2 Antibody and the ADP Alexa594 Tracer. The fluorescence intensity polarization of samples was measured with a Tecan plate reader (Tecan Infinite® M200). The evaluation was based on means from at least three independent experiments.

[10] = tested on: S232 PDH E1 alpha protein (PDHA1) phosphorylation in PSN-1 cells; assay: Cellular PDH phosphorylation (ELISA); assay type: cell-based, human; settings: 24 h, IC50 concentrations
Description: As a first step, the ability of representative derivatives to target PDK in intact cancer cells was assessed by evaluating their effect on PDH phosphorylation of PSN-1 cancer cells.
PSN-1 cells (2 × 10^5) were seeded in a six-well plate in growth medium (4 mL). After 24 h, cells were incubated for 24 h with IC50 concentrations of tested compounds. Subsequently, the phosphorylation level of S232 PDH E1 alpha protein (PDHA1) was assessed by ELISA Kit (Abcam) following the manufacturer’s instructions. The amount of phosphorylated S232 PDHA1 protein was detected by measuring the absorbance of each well at 600 nm, using a Bio-Rad 680 microplate reader.

[11] = tested on: PSN-1 cells; assay: Cellular oxygen consumption (Mito-ID Extracellular O2 Sensor Kit); assay type: cell-based, human; settings: IC50 concentrations
Description: as §3
PSN-1 cells (2 × 10^5) were seeded in a six-well plate in growth medium (4 mL). After 24 h, cells were incubated for 60 min with IC50 concentrations of tested compounds. Subsequently, oxygen consumption was assessed by Mito-ID® Extracellular O2 Sensor Kit according to manufacturer’s instructions. Fluorescence was measured using a Tecan microplate reader (Ex 340–400 nm, Em 630–680 nm).

[12] = target: recombinant human PDK4 (Homo sapiens, UniProt Q16654); assay: ADP-Glo kinase assay, PDK4; settings: 1.5 µM compound
Description: as §4, §5

[13] = tested on: murine Lewis Lung Carcinoma (LLC); assay: In vivo anticancer activity, LLC solid tumor model; settings: LLC-bearing C57BL mice, daily dosing days 7-14, evaluated day 15; 5i 20 mg kg−1 i.p., gemcitabine 60 mg kg−1, cisplatin 3 mg kg−1
Description: Seven days after tumor inoculation the tumor-bearing mice were randomized into vehicle control and treatment groups.
The LLC was implanted intramuscularly (i.m.) as a 2 × 10^6 cell inoculum into the right hind leg of 8-week-old male and female C57BL mice (24 ± 3 g body weight). After 7 days from tumor implantation (visible tumors), mice were randomly divided into 4 groups (8 animals per group) and subjected to daily i.p. administration. […] At day 15, animals were sacrificed, the legs were amputated at the proximal end of the femur, and the inhibition of tumor growth was determined from the difference in the weights of the tumor-bearing leg and the healthy leg of the animals, expressed as a percentage referenced to the control animals. Body weight was measured at day 0 and from day 7 onwards every 2 days and was taken as a parameter for systemic toxicity. All presented values are the means ± SD of no less than three measurements.

[14] = Body weight changes of LLC-bearing mice; assay type: in vivo; settings: LLC-bearing C57BL mice, daily dosing; gemcitabine 60 mg kg−1, cisplatin 3 mg kg−1
[15] = 72 h, MTT test, KRAS-wild-type BxPC-3
[16] = 72 h, MTT test, KRAS-mutant PSN-1

Sequence of recombinant human PDK1 (Q15118 29-436): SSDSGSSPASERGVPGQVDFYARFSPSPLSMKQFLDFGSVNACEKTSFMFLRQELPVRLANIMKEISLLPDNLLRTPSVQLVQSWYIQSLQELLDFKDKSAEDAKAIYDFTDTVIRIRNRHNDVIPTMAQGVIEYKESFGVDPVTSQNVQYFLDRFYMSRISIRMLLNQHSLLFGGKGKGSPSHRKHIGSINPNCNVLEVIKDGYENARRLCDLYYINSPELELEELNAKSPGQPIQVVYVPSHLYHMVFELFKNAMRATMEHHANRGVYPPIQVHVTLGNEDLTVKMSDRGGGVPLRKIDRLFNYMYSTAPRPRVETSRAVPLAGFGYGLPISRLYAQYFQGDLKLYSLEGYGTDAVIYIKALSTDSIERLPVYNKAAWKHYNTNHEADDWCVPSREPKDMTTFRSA
Sequence of recombinant human PDK4 (Q16654 whole entry): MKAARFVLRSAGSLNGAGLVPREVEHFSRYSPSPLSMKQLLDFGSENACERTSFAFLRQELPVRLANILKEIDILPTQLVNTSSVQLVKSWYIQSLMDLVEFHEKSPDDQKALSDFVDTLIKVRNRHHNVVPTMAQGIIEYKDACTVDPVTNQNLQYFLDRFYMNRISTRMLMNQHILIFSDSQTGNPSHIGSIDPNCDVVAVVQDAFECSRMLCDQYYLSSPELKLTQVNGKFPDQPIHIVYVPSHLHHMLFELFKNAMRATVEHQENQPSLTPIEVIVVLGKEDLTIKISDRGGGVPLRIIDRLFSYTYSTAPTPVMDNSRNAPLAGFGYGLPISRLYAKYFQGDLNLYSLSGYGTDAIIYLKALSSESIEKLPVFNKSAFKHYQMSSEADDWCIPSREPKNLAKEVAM

SMILES | melting point [°C] | IC50 [5] [µM] | effect on enzymatic activity of PDK1 [5] | decrease of HSP90 catalytic activity [9] | IC50 [1] [µM] | IC50 [2, 15] [µM] | IC50 [3, 16] [µM] | IC50 [4] [µM] | percentage of cells with hypopolarized mitochondrial membrane potential (in words) [6] | ROS basal level production / hydrogen peroxide formation [7] | also measured
Cn1cc(-c2nnc(N)nc2-c2cn(C)c3ccc(Br)cc23)c2ccccc21 [5j] | 257.3 |  |  |  | 16.7 ± 2 | 0.1 ± 0.04 | 0.4 ± 0.1 | 10.4 ± 1.6 |  |  | 
O=C(c1ccccc1)C(Cl)Cl [DAP, 2,2-dichloroacetophenone, reference compound] |  | > 100 |  |  | 87.4 ± 8.9 |  |  | 78.2 ± 6.8 |  |  | IC50 [2]: 1.06 ± 0.9 µM; IC50 [3]: 10.2 ± 1.6 µM
Nc1ccn([C@@H]2O[C@H](CO)[C@@H](O)C2(F)F)c(=O)n1 [Gemcitabine, gemcitabine hydrochloride, reference compound] |  |  |  |  | 103 ± 6.3 | 0.02 ± 0.003 | 0.1 ± 0.04 | 160 ± 5.6 |  |  | reduction in tumor growth compared to the control group [13]: about 80%; body weight loss [14]: ~ 20%
N.N.[Cl][Pt][Cl] [cisplatin] |  |  |  |  |  |  |  |  |  |  | reduction in tumor growth compared to the control group [13]: ~ 84%; body weight loss [14]: ~ 20%

The next lines start with results.

melting point [°C] | IC50 [5] [µM] | effect on enzymatic activity of PDK1 [5] | decrease of HSP90 catalytic activity [9] | SMILES | IC50 [1] [µM] | IC50 [2, 15] [µM] | IC50 [3, 16] [µM] | IC50 [4] [µM] | percentage of cells with hypopolarized mitochondrial membrane potential (in words) [6] | ROS basal level production / hydrogen peroxide formation [7] | also measured
239.5 | 0.01 ± 0.003 | totally suppressed | 60–80% | COc1ccc2c(c1)c(-c1nc(N)nnc1-c1cn(C)c3ccc(F)cc13)cn2C [5k] | 67.9 ± 3.7 |  |  | 15.9 ± 2.3 | significantly increased | even higher than that provoked by antimycin | lactate production [8]: more potent than DAP; reduction in phospho-PDHA1 (S232) levels [10]: very similar to that exerted by the reference PDK inhibitor DAP; cellular oxygen consumption (OCR) [11]: more effective than DAP
267.6 | 0.7 |  |  | Cn1cc(-c2nc(N)nnc2-c2c[nH]c3ccc(F)cc23)c2cc(Br)ccc21 [5x] |  | 0.2 ± 0.04 | 0.3 ± 0.1 |  |  |  | IC50 [9]: > 1.5 µM
266 |  | totally suppressed | 60–80% | Cn1cc(-c2nnc(N)nc2-c2cn(C)c3ccccc23)c2cc(Br)ccc21 [6j] | 41.2 ± 3.6 | 0.2 ± 0.04 | 0.6 ± 0.1 | 18.1 ± 2.3 | significantly increased | even higher than that provoked by antimycin | IC50 ([5]; read-out: IC50 ±S.D. PDK1, four-parameter logistic model, three independent experiments): 0.07 ± 0.02 µM; effect on PDK4 activity (ATP consumption) [12]: completely blocked; reduction in phospho-PDHA1 (S232) levels [10]: very similar to that exerted by the reference PDK inhibitor DAP
207.7 | 0.09 ± 0.04 | totally suppressed | 60–80% | COc1ccc2c(c1)c(-c1nnc(N)nc1-c1c[nH]c3ccc(Br)cc13)cn2C [6s] | 29.2 ± 1.4 |  |  | 22.3 ± 2.3 | significantly increased | increase in the ROS basal level production | effect on PDK4 activity (ATP consumption) [12]: completely blocked
